# The source made the active and inactive calls.
# Columns and labels:
# [1] = target: T1, Corticotropin-releasing factor receptor 2/Corticotropin-releasing factor-binding protein (Homo sapiens, UniProt P24387+Q13324); experiment: Dose Response confirmation of uHTS hits for small molecule antagonists of the CRF-binding protein and CRF-R2 receptor complex.; assay type: functional; conditions: read-out: IC50_Mean
# T1 sequence (Q13324 whole entry): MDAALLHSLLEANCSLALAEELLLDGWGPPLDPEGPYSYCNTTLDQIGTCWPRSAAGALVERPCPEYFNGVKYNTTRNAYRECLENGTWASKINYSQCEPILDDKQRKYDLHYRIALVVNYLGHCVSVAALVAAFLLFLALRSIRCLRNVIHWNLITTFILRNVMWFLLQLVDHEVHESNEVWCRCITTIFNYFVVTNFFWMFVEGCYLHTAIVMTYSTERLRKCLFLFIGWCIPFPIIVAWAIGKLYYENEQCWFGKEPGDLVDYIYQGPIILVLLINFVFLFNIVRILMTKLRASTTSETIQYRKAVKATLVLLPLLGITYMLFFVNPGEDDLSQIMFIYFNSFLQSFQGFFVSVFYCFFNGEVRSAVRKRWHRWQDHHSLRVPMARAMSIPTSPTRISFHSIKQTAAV
# T1 sequence (P24387 whole entry): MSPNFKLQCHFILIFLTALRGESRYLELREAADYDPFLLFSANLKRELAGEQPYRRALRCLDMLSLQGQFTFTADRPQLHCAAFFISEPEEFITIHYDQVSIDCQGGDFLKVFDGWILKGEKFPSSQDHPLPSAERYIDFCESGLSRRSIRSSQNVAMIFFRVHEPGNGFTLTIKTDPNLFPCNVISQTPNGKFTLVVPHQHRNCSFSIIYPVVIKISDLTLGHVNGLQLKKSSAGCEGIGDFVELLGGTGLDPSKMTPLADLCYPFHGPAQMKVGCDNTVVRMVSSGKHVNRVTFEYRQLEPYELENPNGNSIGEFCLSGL
# [2] = target: T1, Corticotropin-releasing factor receptor 2/Corticotropin-releasing factor-binding protein; experiment: activators of CRF receptor 2 with binding protein – uHTS hits, confirmation (AID 602473); assay type: functional; conditions: read-out: EC50_Mean
# [3] = blockers of CRF-binding protein–CRF-R2 complex – cell-based, uHTS hits, 384-well, dose response (AID 651639); assay type: functional, Homo sapiens; conditions: read-out: IC50_Mean
# [4] = target: Cytochrome P450 2C19 (Homo sapiens, UniProt P33261); experiment: Cytochrome panel assay with activity outcomes. Panel member name: p450-cyp2c19 Compounds with AC50 equal or less than 10 uM are considered active; assay type: functional; conditions: read-out: AC50
# Cytochrome P450 2C19, sequence (P33261 whole entry): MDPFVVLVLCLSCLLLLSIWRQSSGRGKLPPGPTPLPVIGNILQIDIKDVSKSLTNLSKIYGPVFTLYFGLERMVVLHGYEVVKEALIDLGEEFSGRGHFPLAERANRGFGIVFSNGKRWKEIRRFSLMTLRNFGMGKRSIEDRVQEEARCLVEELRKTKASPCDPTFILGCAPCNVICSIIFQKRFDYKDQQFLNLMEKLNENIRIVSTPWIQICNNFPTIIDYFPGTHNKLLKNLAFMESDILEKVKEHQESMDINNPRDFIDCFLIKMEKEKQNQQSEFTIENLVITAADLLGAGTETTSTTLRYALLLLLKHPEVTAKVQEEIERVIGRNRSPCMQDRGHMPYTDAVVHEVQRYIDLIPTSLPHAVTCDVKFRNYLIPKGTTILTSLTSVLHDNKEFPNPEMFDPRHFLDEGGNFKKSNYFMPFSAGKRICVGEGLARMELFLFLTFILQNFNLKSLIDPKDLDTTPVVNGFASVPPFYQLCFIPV
# [5] = target: Cytochrome P450 2C9 (Homo sapiens, UniProt P11712)
# Cytochrome P450 2C9, sequence (P11712 whole entry): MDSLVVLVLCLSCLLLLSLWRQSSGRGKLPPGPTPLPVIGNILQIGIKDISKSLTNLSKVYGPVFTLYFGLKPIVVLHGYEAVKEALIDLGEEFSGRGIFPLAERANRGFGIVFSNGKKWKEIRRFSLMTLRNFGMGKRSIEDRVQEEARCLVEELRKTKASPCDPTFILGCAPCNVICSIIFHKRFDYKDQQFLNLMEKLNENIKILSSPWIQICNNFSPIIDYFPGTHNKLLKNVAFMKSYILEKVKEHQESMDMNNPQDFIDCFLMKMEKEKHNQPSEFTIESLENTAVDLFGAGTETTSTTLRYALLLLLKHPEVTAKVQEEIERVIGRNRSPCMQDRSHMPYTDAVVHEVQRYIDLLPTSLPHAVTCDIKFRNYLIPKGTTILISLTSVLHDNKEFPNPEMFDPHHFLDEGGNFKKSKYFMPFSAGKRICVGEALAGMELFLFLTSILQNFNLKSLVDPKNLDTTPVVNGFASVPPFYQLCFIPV
# [6] = test system: Vero; experiment: cells; assay type: functional, cell-based; conditions: Chlorocebus sabaeus
# [7] = test system: Vero; experiment: cells; assay type: functional; conditions: Chlorocebus sabaeus
# [8] = test system: BJ; experiment: BJ-TERT fibroblast viability loss – cell-based, RAS-independent, luminescence, dose response (AID 1933); assay type: functional; conditions: Homo sapiens
# [9] = test system: BJ; experiment: cells; assay type: functional, cell-based; conditions: Homo sapiens
# [10] = test system: BJ; experiment: BJ-TERT-LT-ST fibroblast viability loss – cell-based, RAS-independent, luminescence, dose response (AID 1935); assay type: functional; conditions: Homo sapiens;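 also: BJ fibroblasts immortalized with TERT plus LT and ST oncogenes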
# [11] = DRD fibroblast viability loss – cell-based, non-viral oncogenic, luminescence, dose response (AID 1934); assay type: functional; conditions: Homo sapiens
# [12] = target: T2, Caspase-6 (Homo sapiens, UniProt P55212); experiment: inhibition of CASP6 peptide cleavage – biochemical, VEID-R110 fluorescence, cherry-pick, dose response (AID 720632)
# T2 sequence (P55212 whole entry): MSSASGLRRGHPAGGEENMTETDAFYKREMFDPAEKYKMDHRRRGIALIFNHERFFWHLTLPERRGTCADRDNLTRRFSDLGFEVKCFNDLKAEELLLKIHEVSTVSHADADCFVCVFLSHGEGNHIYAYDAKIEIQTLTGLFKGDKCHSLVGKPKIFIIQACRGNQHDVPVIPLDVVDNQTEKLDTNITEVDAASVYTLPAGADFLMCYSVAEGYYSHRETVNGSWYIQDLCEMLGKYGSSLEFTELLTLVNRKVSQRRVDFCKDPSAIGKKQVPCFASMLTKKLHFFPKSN
# [13] = target: Cytochrome P450 3A4 (Homo sapiens, UniProt P08684);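 also: CYP3A4 tested as one member of a cytochrome P450 panel screen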
# Cytochrome P450 3A4, sequence (P08684 whole entry): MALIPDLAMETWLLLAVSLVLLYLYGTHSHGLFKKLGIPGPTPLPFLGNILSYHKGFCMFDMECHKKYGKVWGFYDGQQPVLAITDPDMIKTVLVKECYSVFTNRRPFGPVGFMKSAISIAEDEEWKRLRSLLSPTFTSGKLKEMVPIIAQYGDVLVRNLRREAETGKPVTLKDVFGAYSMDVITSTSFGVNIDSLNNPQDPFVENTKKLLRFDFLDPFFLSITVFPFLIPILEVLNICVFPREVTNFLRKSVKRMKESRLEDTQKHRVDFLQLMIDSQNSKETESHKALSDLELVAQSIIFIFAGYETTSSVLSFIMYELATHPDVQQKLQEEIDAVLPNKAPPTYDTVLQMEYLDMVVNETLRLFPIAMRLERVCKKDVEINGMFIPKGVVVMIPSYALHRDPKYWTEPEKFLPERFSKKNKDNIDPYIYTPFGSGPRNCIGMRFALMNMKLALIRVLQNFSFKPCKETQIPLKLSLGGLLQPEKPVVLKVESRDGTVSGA
# [14] = target: T3, Microphthalmia-associated transcription factor (Homo sapiens, UniProt O75030); experiment: reducers of TRPM1 reporter luminescence, concentration series – cell-based, SK-MEL-5, cherry-picked, set 3, MITF inhibitor project, dose response (AID 493073); assay type: functional;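 also: SK-MEL-5 melanoma cells with luciferase driven by the MITF target TRPM1 promoter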
# T3 sequence (O75030 whole entry): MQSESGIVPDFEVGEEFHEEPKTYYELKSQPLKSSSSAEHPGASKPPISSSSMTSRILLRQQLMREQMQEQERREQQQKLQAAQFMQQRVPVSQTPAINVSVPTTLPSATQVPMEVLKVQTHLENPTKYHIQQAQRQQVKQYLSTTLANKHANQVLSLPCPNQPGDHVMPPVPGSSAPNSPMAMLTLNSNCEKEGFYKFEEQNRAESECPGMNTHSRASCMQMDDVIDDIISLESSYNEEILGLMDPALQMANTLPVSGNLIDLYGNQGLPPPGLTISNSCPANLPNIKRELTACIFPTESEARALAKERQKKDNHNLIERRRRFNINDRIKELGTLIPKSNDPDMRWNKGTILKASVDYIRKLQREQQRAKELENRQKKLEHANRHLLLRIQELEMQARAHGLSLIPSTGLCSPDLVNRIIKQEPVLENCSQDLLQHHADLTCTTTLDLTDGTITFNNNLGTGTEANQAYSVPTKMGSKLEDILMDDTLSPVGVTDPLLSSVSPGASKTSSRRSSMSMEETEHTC
# [15] = test system: INS1; experiment: INS-1E survival protection against cytokine death – cell-based, luminescence, retest, dose response (AID 449756); assay type: functional; conditions: Rattus norvegicus;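 also: cell death triggered by IL-1 beta plus TNF-alpha plus IFN-gamma mixture; protective hits raise ATP signal compared with cytokine alone wells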
# [16] = growth inhibition of yeast DHODH-expressing 3D7 parasites – SYBR Green, dry powder samples, dose response (AID 1159570); assay type: functional, cell-based;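 also: parasite growth measured after 72 hours of compound exposure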
# [17] = P. falciparum Dd2 growth inhibitors, dose response, SYBR Green, cherry-picked samples (AID 1159567); assay type: functional, cell-based
# [18] = Dd2 malaria parasite growth inhibition potency – SYBR Green, dry powder samples, dose response (AID 1159566); assay type: functional, cell-based;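 also: potency for growth inhibition with lower SYBR green DNA signal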
# [19] = growth inhibition of PfATP4-mutant resistant parasites – NITD609-resistant line, SYBR Green, dry powder, dose response (AID 1159571); assay type: functional, cell-based;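 also: parasites synchronized at ring stage by sorbitol before testing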
# [20] = luciferase reporter signal suppression in cells – H4 neuroglioma cells, luminescence, dose response (AID 1990); assay type: functional, cell-based
# [21] = Luminescence Cell-Based Dose Response HTS to Identify Inhibitors of 5'UTR Stem-Loop Driven Prion Protein mRNA Translation in H4 Neuroglioblastoma Cells. [Related pubchem assays: 1827 (Project Summary), 1813 (Primary HTS)]; assay type: functional
# [22] = alpha-synuclein stem-loop luciferase translation blockers – H4 neuroglioma cells, luminescence, confirmation (AID 1988); assay type: functional, cell-based
# [23] = target: Glyceraldehyde-3-phosphate dehydrogenase (Homo sapiens, UniProt P04406)
# Glyceraldehyde-3-phosphate dehydrogenase, sequence (P04406 whole entry): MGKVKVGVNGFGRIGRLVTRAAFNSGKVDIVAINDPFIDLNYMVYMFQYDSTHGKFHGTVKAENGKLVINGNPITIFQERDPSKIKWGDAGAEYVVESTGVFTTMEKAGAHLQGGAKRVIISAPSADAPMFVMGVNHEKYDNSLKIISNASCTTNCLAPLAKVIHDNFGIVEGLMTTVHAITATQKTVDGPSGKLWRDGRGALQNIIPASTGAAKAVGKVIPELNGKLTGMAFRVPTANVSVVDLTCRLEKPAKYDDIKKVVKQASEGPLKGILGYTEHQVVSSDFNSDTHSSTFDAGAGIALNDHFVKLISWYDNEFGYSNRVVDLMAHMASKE
# [24] = target: Nuclear receptor subfamily 5 group A member 2 (Homo sapiens, UniProt O00482); assay type: functional, cell-based;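 also: HEK293T cells transfected with LRH-1 and a StAR promoter luciferase reporter; potency for inhibitors that lower LRH-1 driven reporter light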
# Nuclear receptor subfamily 5 group A member 2, sequence (O00482 whole entry): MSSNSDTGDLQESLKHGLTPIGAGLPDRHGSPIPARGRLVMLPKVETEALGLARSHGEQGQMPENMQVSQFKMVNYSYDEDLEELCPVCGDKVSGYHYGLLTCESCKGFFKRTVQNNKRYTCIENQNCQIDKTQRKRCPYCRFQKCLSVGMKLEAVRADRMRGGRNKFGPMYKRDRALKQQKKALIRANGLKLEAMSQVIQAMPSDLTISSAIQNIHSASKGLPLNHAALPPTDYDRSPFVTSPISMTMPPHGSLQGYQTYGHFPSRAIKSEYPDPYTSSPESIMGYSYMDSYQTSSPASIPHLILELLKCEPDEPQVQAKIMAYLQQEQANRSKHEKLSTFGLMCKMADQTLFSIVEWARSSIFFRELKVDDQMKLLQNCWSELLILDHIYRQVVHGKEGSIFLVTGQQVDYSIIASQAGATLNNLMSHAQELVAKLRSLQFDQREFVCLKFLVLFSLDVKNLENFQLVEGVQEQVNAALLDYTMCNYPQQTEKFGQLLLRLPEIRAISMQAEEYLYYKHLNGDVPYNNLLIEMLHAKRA
# [25] = target: Steroidogenic factor 1 (Homo sapiens, UniProt Q13285); experiment: Counterscreen for inverse agonists of the liver receptor homolog-1 (LRH-1; NR5A2): Luminescence-based cell-based high throughput dose response assay to identify inverse agonists of the Steroidogenic Factor 1 Nuclear Receptor (SF1; NR5A1).; assay type: functional
# Steroidogenic factor 1, sequence (Q13285 whole entry): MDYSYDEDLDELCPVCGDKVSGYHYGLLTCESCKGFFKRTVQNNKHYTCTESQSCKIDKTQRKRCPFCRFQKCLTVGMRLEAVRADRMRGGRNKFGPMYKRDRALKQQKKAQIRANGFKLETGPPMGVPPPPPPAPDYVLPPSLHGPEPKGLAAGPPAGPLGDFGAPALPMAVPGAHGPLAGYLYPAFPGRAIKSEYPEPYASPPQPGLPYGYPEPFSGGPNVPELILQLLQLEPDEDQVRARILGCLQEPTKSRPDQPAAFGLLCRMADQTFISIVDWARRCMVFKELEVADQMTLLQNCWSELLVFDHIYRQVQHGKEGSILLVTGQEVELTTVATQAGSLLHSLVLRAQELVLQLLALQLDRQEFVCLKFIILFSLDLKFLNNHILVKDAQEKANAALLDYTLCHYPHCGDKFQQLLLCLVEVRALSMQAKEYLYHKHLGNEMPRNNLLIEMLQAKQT
# [26] = nonselective StAR promoter luciferase inhibitors – cell-based, luminescence, luciferase reporter, counter-screen for LRH-1 inverse agonist project, dose response (AID 651969); assay type: functional
smiles,measurement,setting,value
CCN(CC)C(=O)[C@H]1C[C@H](CC(=O)NC/C=C(\C)CCC=C(C)C)C(=O)N2CCc3c([nH]c4ccc(Cl)cc34)[C@]12C,IC50,[1],< 0.368 µM (active)
same,EC50,[2],> 53 µM (inactive)
same,IC50,[3],1.72 µM (active)
CCOc1ccc(NC(=O)Cn2nnc(C(=O)NCc3ccccc3OC)c2N)cc1,AC50,[4],5.01 µM (inconclusive)
same,AC50,[5],inconclusive
O=C(NC1CCCCC1)c1ccc([N+](=O)[O-])o1,IC50,[6],> 25 µM (active)
same,CC50,[7],18.4 µM (active)
CC1(C)CCSC(/C=C/c2ccccc2)=N1,EC50,[8],7.83 µM (active)
same,EC50,[9],143 µM (active)
same,EC50,[10],12.4 µM (active)
same,EC50,[11],8.6 µM (active)
same,IC50,[6],19.2 µM (active)
same,CC50,[7],18.5 µM (active)
O=[N+]([O-])c1ccc(F)c2c(O)[nH]nc12,AC50,[12],6.73 µM (active)
C=CCNC(=S)N/N=C/c1ccc(-c2cc(Cl)ccc2Cl)o1,AC50,[4],3.16 µM (inconclusive)
same,AC50,[13],10 µM (inconclusive)
same,AC50,[5],inconclusive
C/C(=N\NC(=O)C(c1ccccc1)c1ccccc1)c1ccccn1,AC50,[14],5.96 µM (active)
same,AC50,[15],1.3 µM (active)
COc1ccc(NC(=O)N(C)C[C@@H]2Oc3cc(-c4ccc(C)cc4)ccc3S(=O)(=O)N([C@H](C)CO)C[C@@H]2C)cc1,AC50,[16],3.13 µM (active)
same,AC50,[17],2.58 µM (active)
same,AC50,[18],2.25 µM (active)
same,AC50,[19],3.25 µM (active)
COc1ccc(C(=O)Nc2ccc(C)cn2)c(OC)c1,EC50,[20],1.15 µM (active)
same,EC50,[21],28.2 µM (active)
same,EC50,[22],0.307 µM (active)
same,AC50,[14],3.7 µM (active)
COc1cc(S(=O)(=O)Nc2cccnc2)c(OC)cc1Br,IC50,[23],> 100 µM (not active)
CCOc1ccc(NC(=O)CSc2nncc(O)n2)cc1,IC50,[24],0.594 µM (active)
same,IC50,[25],0.178 µM (active)
same,IC50,[26],35.9 µM (inactive)
